Data reported in patent US20250170240A1, “MODIFIED INVARIANT NATURAL KILLER T CELLS EXPRESSING A CHIMERIC ANTIGEN RECEPTOR AND USES THEREOF” (Tinkeso Therapeutics, Inc., priority 2022, published 2025).

Assays:
CD1d^+ target cells [1] = assay: Luciferase-based killing assay, glycolipid- or DMSO-pulsed CD1d+ target cells; format: cell-based, human; conditions: effector thawed iNKT47 CD19 CAR (allo), FIG. 13B
Protocol: Luciferase-Based Killing Assay: αGalCer or DMSO pulsed target cells were prepared by incubating target cells (2×10^5/mL) at 37° C., 5% CO2 with αGalCer (200 ng/ml) or DMSO (1:500 of 10% stock) overnight and used for cytotoxicity assays after spinning to remove medium containing αGalCer or DMSO. Luciferase-expressing target cells (1×104 in 50 μL per well) were incubated with 50 μL of INKT cells per well at different effector T cell: target cell (E/T) ratios in quadruplicate in a 96-well flat-bottom white polystyrene microplate (Corning, Cat No. 3912). A spontaneous or maximal killing was set up by adding 50 μL per well of culture medium or 1% Triton X-100 instead of INKT cells, respectively. After a standard 4 h or 16 h (as indicated) incubation at 37° C., 10 μL of D-luciferin (1:10 of 30 mg/ml stock) or 50 μL (1:50 of 30 mg/mL) (Caliper Life Sciences, Cat No. XR-1001) was added to each well. Luciferase activity was measured using a Synergy 2 microplate reader (BioTek). Percent specific lysis was calculated as follows: […]

CD1d^+ target cells [2] = assay: Cytokine release assay (IFN-γ ELISA), glycolipid-pulsed CD1d+ target cells; format: cell-based, human; conditions: pulsed MV4:11-hfflucN; 3-month cultured INKT47 CD19 CAR (allo) and iNKT48 CD19 CAR/GFP (allo); FIG. 13C
Protocol: Cytokine Release Assays: Cytokine release assays were performed by co-culturing 1-2×10^5 T cells with 2×10^4 target cells per well in duplicate in 96-well flat-bottom plates. After 24 h, supernatants were assayed using a LEGEND MAX Human IFN-γ ELISA kit (BioLegend, Cat No. 430107).

Compound: CCCCCCCCCCCCCC[C@@H](O)[C@@H](O)[C@H](CO[C@H]1O[C@H](CO)[C@H](O)[C@H](O)[C@H]1O)NC(=O)CCCCCCCCCCc1ccc(F)cc1 [7DW8-5]
- potency relative to αGalCer in sensitizing CD1d+ target cells (CD1d^+ target cells [1]; Molm13): at least 16 fold
- potency relative to αGalCer in sensitizing CD1d+ target cells (CD1d^+ target cells [1]; THP1): ≥ 64 fold
- potency in stimulating iNKT cells to produce IFN-γ (CD1d^+ target cells [2]): more potent than αGalCer
